# Results: ChEMBL document CHEMBL5154942, “Discovery of Clinical Candidate NTQ1062 as a Potent and Bioavailable Akt Inhibitor for the Treatment of Human Tumors” (J Med Chem, 2022)
# pIC50: −log10 of the molar value.
# What was measured:
# [1] = target: RAC-alpha serine/threonine-protein kinase (Homo sapiens, UniProt P31749); test: Inhibition of recombinant AKT1 (104 to 480 end residues) (unknown origin) catalytic domain expressed in Sf21 cells using peptide substrate incubated for 1 hr in presence of ATP by caliper off-chip mobility shift assay
# RAC-alpha serine/threonine-protein kinase, sequence (P31749 whole entry, the tested form may be a part): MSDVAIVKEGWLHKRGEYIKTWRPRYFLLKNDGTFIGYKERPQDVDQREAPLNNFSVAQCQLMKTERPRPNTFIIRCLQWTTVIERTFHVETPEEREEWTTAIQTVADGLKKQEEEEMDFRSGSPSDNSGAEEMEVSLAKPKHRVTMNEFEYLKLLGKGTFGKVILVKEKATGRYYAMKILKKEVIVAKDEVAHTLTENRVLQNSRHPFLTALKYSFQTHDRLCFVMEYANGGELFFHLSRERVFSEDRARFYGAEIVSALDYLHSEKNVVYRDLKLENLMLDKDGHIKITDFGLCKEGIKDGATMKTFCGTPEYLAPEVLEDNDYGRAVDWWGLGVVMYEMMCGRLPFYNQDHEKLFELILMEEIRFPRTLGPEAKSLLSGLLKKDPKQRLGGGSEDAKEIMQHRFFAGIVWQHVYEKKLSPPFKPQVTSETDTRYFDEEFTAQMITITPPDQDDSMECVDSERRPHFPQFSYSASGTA
# LNCaP [2] = test: Antiproliferative activity against human LNcap assessed as reduction in cell viability incubated for 72 hrs by Cell Titer Glo luminescent assay
# [3] = Oral bioavailability in overnight fasted ICR mouse at 10 mg/kg measured upto 24 hrs by UPLC-MS/MS analysis; assay type: ADME, organism-based; details: in vivo
# [4] = AUC (0 to infinity) in overnight fasted ICR mouse at 10 mg/kg, po measured upto 24 hrs by UPLC-MS/MS analysis; assay type: ADME, organism-based; parameters: dose 10 mg/kg, time < 24 hrs, route po; details: in vivo
# LNCaP [5] = test: In vivo antitumor activity against human LNCap cells xenografted in NCG mouse assessed as tumor growth inhibition at 50 mg/kg administered once daily for 18 to 21 days relative to control; assay type: functional; details: time 18-21 day, read-out: TGI
# Cytochrome P450 2C9 = Cytochrome P450 2C9 (Homo sapiens, UniProt P11712); test: Inhibition of CYP2C9 in human liver microsomes at 0.01 to 30 uM using diclofenac as substrate in presence of NADPH by UPLC-MS/MS analysis; assay type: ADME, Microsome
# Cytochrome P450 2C9, sequence (P11712 whole entry): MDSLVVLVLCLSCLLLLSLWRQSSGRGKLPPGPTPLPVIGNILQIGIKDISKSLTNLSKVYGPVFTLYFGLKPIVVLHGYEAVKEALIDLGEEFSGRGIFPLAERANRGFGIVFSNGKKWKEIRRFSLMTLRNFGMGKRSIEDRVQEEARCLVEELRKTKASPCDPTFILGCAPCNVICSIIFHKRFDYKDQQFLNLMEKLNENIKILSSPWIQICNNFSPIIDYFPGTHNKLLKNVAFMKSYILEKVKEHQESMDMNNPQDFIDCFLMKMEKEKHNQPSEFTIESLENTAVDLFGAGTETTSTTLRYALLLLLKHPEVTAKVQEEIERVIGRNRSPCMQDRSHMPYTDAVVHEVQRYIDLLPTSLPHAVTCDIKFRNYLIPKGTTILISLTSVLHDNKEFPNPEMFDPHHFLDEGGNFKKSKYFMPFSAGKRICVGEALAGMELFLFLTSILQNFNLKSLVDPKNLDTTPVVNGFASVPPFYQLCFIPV
# Cytochrome P450 2C19 = Cytochrome P450 2C19 (Homo sapiens, UniProt P33261); test: Inhibition of CYP2C19 in human liver microsomes at 0.01 to 30 uM using mephenytoin as substrate in presence of NADPH by UPLC-MS/MS analysis; assay type: ADME, Microsome
# Cytochrome P450 2C19, sequence (P33261 whole entry): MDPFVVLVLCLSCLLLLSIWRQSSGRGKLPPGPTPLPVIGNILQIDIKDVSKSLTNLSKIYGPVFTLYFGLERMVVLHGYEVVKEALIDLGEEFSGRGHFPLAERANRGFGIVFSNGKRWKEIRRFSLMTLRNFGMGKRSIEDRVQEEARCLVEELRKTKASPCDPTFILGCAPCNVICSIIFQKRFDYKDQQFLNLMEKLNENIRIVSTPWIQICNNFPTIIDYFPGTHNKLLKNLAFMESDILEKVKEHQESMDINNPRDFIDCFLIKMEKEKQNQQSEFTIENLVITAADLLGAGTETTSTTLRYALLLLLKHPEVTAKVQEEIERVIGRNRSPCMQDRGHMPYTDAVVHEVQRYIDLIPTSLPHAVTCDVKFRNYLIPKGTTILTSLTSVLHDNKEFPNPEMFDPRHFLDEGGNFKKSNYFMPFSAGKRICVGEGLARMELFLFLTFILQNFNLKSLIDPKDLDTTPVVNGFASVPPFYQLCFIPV
# Cytochrome P450 3A4 = Cytochrome P450 3A4 (Homo sapiens, UniProt P08684); test: Inhibition of CYP3A4 in human liver microsomes at 0.01 to 30 uM […] in presence of NADPH by UPLC-MS/MS analysis; assay type: ADME, Microsome
# Cytochrome P450 3A4, sequence (P08684 whole entry): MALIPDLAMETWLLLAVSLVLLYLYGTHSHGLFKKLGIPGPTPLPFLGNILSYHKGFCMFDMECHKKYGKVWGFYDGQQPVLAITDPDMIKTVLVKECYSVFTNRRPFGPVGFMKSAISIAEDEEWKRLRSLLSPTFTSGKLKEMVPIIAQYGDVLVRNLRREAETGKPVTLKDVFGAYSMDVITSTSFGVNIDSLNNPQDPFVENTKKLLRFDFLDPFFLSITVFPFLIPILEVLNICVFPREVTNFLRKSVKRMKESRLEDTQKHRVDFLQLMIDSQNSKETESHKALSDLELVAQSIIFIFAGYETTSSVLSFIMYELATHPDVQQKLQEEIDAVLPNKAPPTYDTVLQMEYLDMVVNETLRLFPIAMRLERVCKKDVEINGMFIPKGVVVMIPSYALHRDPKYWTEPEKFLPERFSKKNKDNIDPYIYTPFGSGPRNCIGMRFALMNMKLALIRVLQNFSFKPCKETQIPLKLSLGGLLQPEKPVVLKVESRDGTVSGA
# Cytochrome P450 2D6 = Cytochrome P450 2D6 (Homo sapiens, UniProt P10635); test: Inhibition of CYP2D6 in human liver microsomes at 0.01 to 30 uM using dextromethorphan as substrate in presence of NADPH by UPLC-MS/MS analysis; assay type: ADME, Microsome
# Cytochrome P450 2D6, sequence (P10635 whole entry): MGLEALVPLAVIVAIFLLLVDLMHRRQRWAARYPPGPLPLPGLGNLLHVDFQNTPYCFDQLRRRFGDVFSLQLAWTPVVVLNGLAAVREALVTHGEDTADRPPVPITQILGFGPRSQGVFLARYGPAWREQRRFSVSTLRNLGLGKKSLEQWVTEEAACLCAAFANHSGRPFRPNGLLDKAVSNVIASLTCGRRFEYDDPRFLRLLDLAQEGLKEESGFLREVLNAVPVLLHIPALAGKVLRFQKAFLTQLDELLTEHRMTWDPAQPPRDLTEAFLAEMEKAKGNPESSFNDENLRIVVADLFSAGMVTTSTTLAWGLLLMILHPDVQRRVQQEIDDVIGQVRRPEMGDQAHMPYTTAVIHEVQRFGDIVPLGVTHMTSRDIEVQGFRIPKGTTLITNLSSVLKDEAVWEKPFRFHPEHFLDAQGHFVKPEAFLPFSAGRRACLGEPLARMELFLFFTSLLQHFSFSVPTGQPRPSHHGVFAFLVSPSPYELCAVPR
# Cytochrome P450 1A2 = target: T1, Cytochrome P450 1A2 (Homo sapiens, UniProt P05177); test: Inhibition of CYP1A2 in human liver microsomes at 0.01 to 30 uM […] in presence of NADPH by UPLC-MS/MS analysis; assay type: ADME, Microsome
# T1 sequence (P05177 whole entry): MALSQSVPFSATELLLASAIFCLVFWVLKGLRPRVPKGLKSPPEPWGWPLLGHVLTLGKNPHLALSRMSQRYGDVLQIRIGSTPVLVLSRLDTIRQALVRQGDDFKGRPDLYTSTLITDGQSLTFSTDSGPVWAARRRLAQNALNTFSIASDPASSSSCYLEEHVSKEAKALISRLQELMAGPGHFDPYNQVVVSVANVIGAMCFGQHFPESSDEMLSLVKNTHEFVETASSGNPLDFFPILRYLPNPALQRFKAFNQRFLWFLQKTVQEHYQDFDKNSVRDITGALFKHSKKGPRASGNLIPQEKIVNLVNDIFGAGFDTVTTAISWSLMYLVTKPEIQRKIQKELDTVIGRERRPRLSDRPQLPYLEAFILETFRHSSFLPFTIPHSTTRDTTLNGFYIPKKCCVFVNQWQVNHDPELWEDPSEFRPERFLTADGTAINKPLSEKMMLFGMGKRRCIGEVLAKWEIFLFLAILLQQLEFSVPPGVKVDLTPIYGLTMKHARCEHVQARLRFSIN
# [6] = MRT(0 to t) in overnight fasted ICR mouse at 10 mg/kg, po measured upto 24 hrs by UPLC-MS/MS analysis; assay type: ADME, organism-based; details: in vivo
# [7] = Half life in ICR mouse at 2 mg/kg, iv measured upto 24 hrs by UPLC-MS/MS analysis; assay type: ADME, organism-based; details: in vivo
# [8] = Plasma protein binding in human at 1 to 100 uM incubated for 16 hrs by UPLC-MS/MS analysis; assay type: ADME, cell-free; details: dose 1-100 µM, read-out: PPB (converted)
# [9] = Cmax in overnight fasted ICR mouse at 10 mg/kg, po measured upto 24 hrs by UPLC-MS/MS analysis; assay type: ADME, organism-based; parameters: dose 10 mg/kg, time < 24 hrs, route po; details: in vivo
# [10] = Plasma protein binding in human assessed as unbound fraction at 1 to 100 uM incubated for 16 hrs by UPLC-MS/MS analysis; assay type: ADME, cell-free; details: dose 1-100 µM
# [11] = AUC (0 to infinity) in ICR mouse at 2 mg/kg, iv measured upto 24 hrs by UPLC-MS/MS analysis; assay type: ADME, organism-based; parameters: dose 2 mg/kg, time < 24 hrs, route iv; details: in vivo
# [12] = Plasma protein binding in mouse at 1 to 100 uM incubated for 16 hrs by UPLC-MS/MS analysis; assay type: ADME, cell-free; details: dose 1-100 µM, read-out: PPB (converted)
# [13] = Clearance in ICR mouse at 2 mg/kg, iv measured upto 24 hrs by UPLC-MS/MS analysis; assay type: ADME, organism-based; details: in vivo
# [14] = Tmax in overnight fasted ICR mouse at 10 mg/kg, po measured upto 24 hrs by UPLC-MS/MS analysis; assay type: ADME, organism-based; details: in vivo
# cells = details: Homo sapiens, COLO 704, 72 h
# PC-3 = test: cells; details: Homo sapiens, PC-3, 72 h
# Description: Antiproliferative activity against human PC-3 habouring PTEN deletion and PIK3CA mutation/amplication assessed as reduction in cell viability incubated for 72 hrs by Cell Titer Glo luminescent assay
# C-33-A = test: cells; details: Homo sapiens, 72 h
# Description: Antiproliferative activity against human C-33-A habouring PTEN deletion mutant assessed as reduction in cell viability incubated for 72 hrs by Cell Titer Glo luminescent assay
# TOV21G = test: cells; details: Homo sapiens, 72 h
# Description: Antiproliferative activity against human TOV-21G habouring PTEN deletion and PIK3CA mutation/amplication assessed as reduction in cell viability incubated for 72 hrs by Cell Titer Glo luminescent assay
# ZR-75-1 = test: cells; details: Homo sapiens, ZR-75-1, 72 h
# Description: Antiproliferative activity against human ZR-75-1 habouring PTEN deletion mutant assessed as reduction in cell viability incubated for 72 hrs by Cell Titer Glo luminescent assay
# RL95-2 = test: cells; details: Homo sapiens, RL95-2, 72 h
# Description: Antiproliferative activity against human RL95-2 habouring PTEN deletion mutant assessed as reduction in cell viability incubated for 72 hrs by Cell Titer Glo luminescent assay
# CAL-51 = test: cells; details: Homo sapiens, CAL-51, 72 h
# Description: Antiproliferative activity against human CAL-51 habouring PTEN deletion and PIK3CA mutation/amplication assessed as reduction in cell viability incubated for 72 hrs by Cell Titer Glo luminescent assay
# T47D = test: cells; details: Homo sapiens, 72 h
# Description: Antiproliferative activity against human T47D habouring PIK3CA mutation/amplication assessed as reduction in cell viability incubated for 72 hrs by Cell Titer Glo luminescent assay
structure (smiles),measurement,setting,value
CC(C)NC[C@@H](C(=O)N1CCN(c2cc[nH]c(=O)c2)CC1)c1ccc(Cl)cc1,pIC50,[1],< 6.00
CC(C)NC[C@@H](C(=O)N1CCN(c2ncnc3c2[C@H](C)OC(=O)N3)[C@H]2C[C@H]21)c1ccc(Cl)cc1,pIC50,LNCaP [2],6.70
same,pIC50,[1],9.22
same,bioavailability,[3],26.5%
same,AUC(0-inf),[4],2580 ng·h/mL
same,inhibition in vivo at 50 mg/kg,LNCaP [5],94.1%
CC(C)NC[C@@H](C(=O)N1C2CCC1CN(c1ncnc3c1[C@H](C)CC(=O)N3)C2)c1ccc(Cl)cc1,pIC50,LNCaP [2],7.10
same,AUC(0-inf),[4],911 ng·h/mL
Cc1c(CO)ncnc1N1CCN(C(=O)[C@H](CNC(C)C)c2ccc(Cl)cc2)CC1,pIC50,[1],< 6.00
CC(C)NC[C@@H](C(=O)N1CC=C(c2ncnc3c2[C@H](C)CC(=O)N3)CC1)c1ccc(Cl)cc1,pIC50,[1],6.02
CC(C)NC[C@@H](C(=O)N1[C@@H]2CC[C@H]1CN(c1ncnc3c1[C@H](C)OC(=O)N3)C2)c1ccc(Cl)cc1,pIC50,LNCaP [2],7.08
same,pIC50,[1],9.22
same,AUC(0-inf),[4],727 ng·h/mL
C[C@@H]1CC(=O)Nc2ncnc(N3CCN(C(=O)[C@H](CN)c4ccc(Cl)cc4)[C@@H]4C[C@@H]43)c21,pIC50,Cytochrome P450 2C9,< 4.52
same,pIC50,Cytochrome P450 2C19,< 4.52
same,pIC50,[1],8.17
same,pIC50,Cytochrome P450 3A4,5.00
same,pIC50,Cytochrome P450 2D6,< 4.52
same,pIC50,Cytochrome P450 1A2,5.19
CC(C)NC[C@@H](C(=O)N1C[C@H]2CC[C@@H](C1)N2c1ncnc2c1[C@H](C)OC(=O)N2)c1ccc(Cl)cc1,pIC50,LNCaP [2],6.63
same,pIC50,[1],8.80
same,AUC(0-inf),[4],3030 ng·h/mL
same,inhibition in vivo at 50 mg/kg,LNCaP [5],28%
CC(C)NC[C@@H](C(=O)N1CCN(c2ncnc3c2[C@@H](C)CC(=O)N3)CC1)c1ccc(Cl)cc1,pIC50,[1],< 6.00
CC(C)NC[C@@H](C(=O)N1CCN(c2ncnc3c2[C@H](C)CC(=O)N3)C[C@@H]1C)c1ccc(Cl)cc1,pIC50,[1],6.66
CC(C)NC[C@@H](C(=O)N1CC2CC1CN2c1ncnc2c1[C@H](C)CC(=O)N2)c1ccc(Cl)cc1 (stereo partly specified),pIC50,[1],6.38
COC1CCC(NC[C@@H](C(=O)N2CCN(c3ncnc4c3[C@H](C)CC(=O)N4)[C@H]3C[C@H]32)c2ccc(Cl)cc2)CC1 (stereo partly specified),pIC50,Cytochrome P450 2C9,4.52
same,pIC50,Cytochrome P450 2C19,4.52
same,pIC50,[1],8.89
same,pIC50,Cytochrome P450 3A4,5.74
same,pIC50,Cytochrome P450 2D6,4.52
same,pIC50,Cytochrome P450 1A2,4.52
CC(C)NC[C@@H](C(=O)N1CCC(c2ncnc3c2[C@H](C)CC(=O)N3)CC1)c1ccc(Cl)cc1,pIC50,[1],< 6.00
C[C@@H]1CC(=O)Nc2ncnc(N3CCN(C(=O)[C@H](CNC4C5COCC54)c4ccc(Cl)cc4)[C@@H]4C[C@@H]43)c21 (stereo partly specified),pIC50,Cytochrome P450 2C9,< 4.52
same,pIC50,Cytochrome P450 2C19,< 4.52
same,pIC50,[1],8.39
same,pIC50,Cytochrome P450 3A4,5.36
same,pIC50,Cytochrome P450 2D6,< 4.52
same,pIC50,Cytochrome P450 1A2,< 4.52
CC(C)NC[C@@H](C(=O)N1CC2(C1)CN(c1ncnc3c1[C@H](C)CC(=O)N3)C2)c1ccc(Cl)cc1,pIC50,[1],< 6.00
CC(C)NC[C@@H](C(=O)N1CCN(c2ncnc3c2[C@H](C)CC(=O)N3)CC1)c1ccc(Cl)cc1,pIC50,LNCaP [2],6.99
same,MRT last at 24 h,[6],2.23 h
same,pIC50,Cytochrome P450 2C9,< 4.30
same,pIC50,Cytochrome P450 2C19,< 4.30
same,half-life,[7],1.56 h
same,pIC50,[1],8.80
same,"fraction unbound at 16 h, up to 100 µM",[8],0.513
same,Cmax,[9],84.3 ng/mL
same,"fraction unbound at 16 h, up to 100 µM",[10],0.513
same,AUC(0-inf),[11],181 ng·h/mL
same,bioavailability,[3],26.6%
same,AUC(0-inf),[4],241 ng·h/mL
same,pIC50,Cytochrome P450 3A4,4.41
same,pIC50,Cytochrome P450 2D6,< 4.30
same,"fraction unbound at 16 h, up to 100 µM",[12],0.477
same,inhibition in vivo at 50 mg/kg,LNCaP [5],50%
same,pIC50,Cytochrome P450 1A2,4.60
same,clearance,[13],178 mL/min/kg
same,Tmax,[14],2 h
CC(C)NC[C@@H](C(=O)N1C2CCC1CN(c1ncnc3c1N(C)CC(=O)N3)C2)c1ccc(Cl)cc1.O=CO,pIC50,LNCaP [2],6.55
same,AUC(0-inf),[4],2290 ng·h/mL
same,inhibition in vivo at 50 mg/kg,LNCaP [5],34.5%
[2H]C1([2H])N(C(=O)[C@H](CNC(C)C)c2ccc(Cl)cc2)C([2H])([2H])C([2H])([2H])N(c2ncnc3c2[C@H](C)CC(=O)N3)C1([2H])[2H],pIC50,LNCaP [2],6.88
same,pIC50,[1],8.80
same,AUC(0-inf),[4],947 ng·h/mL
CC(C)NC[C@@H](C(=O)N1CC2CCC(C1)N2c1ncnc2c1[C@H](C)CC(=O)N2)c1ccc(Cl)cc1,pIC50,LNCaP [2],6.35
same,AUC(0-inf),[4],1480 ng·h/mL
CC(C)NC[C@@H](C(=O)N1CCN(c2ncnc3c2[C@H](C)C[C@H]3O)CC1)c1ccc(Cl)cc1 [IPATASERTIB],pIC50,cells,6.02
same,pIC50,PC-3,5.45
same,pIC50,C-33-A,6.14
same,pIC50,TOV21G,6.15
same,pIC50,ZR-75-1,5.88
same,pIC50,RL95-2,6.48
same,pIC50,CAL-51,6.58
same,pIC50,T47D,6.48
CC(C)NC[C@@H](C(=O)N1C[C@H]2CC[C@@H](C1)N2c1ncnc2c1N(C)CC(=O)N2)c1ccc(Cl)cc1,pIC50,[1],7.52
C[C@@H]1CC(=O)Nc2ncnc(N3CCN(C(=O)[C@H](CNC4CC4)c4ccc(Cl)cc4)[C@@H]4C[C@@H]43)c21,pIC50,Cytochrome P450 2C9,< 4.52
same,pIC50,Cytochrome P450 2C19,< 4.52
same,pIC50,Cytochrome P450 3A4,5.96
same,pIC50,Cytochrome P450 2D6,< 4.52
same,pIC50,Cytochrome P450 1A2,< 4.52
